Experiment: gradient 5% acetonitrile 3 min, to 50% in 2 min, to 85% in 15 min, held 3 min, 100 µL/min
Conditions: column: Zorbax Extend-C18 2.1 x 50 mm; eluents: water / acetonitrile, 0.1% formic acid
How it was run: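 Standards, all pure, were combined into mixtures of ~100 molecules and run at 100 μL/min on a Zorbax Extend-C18 column (2.1 × 50 mm, 1.8 μm) with water and acetonitrile, each containing 0.1% formic acid. A coupled quadrupole time-of-flight mass spectrometer operated in positive and negative ionization mode. Retention time values come from computationally picked adduct peaks, each inspected manually.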

| RP-LC retention time | SMILES |
| --- | --- |
| 1090 s | Cc1ccc(-c2nc(-c3ccc4c(c3)nnn4CCC(=O)N3CCCC3)no2)c(C)c1 |
| 593 s | COCCN1C(=O)CS(=O)C12CCN(C(=O)c1ccsc1)CC2 (stereo unspecified) |
| 760 s | Cc1cc(C2CCCN2C(=O)CCc2ccccc2)no1 (stereo unspecified) |
| 623 s | CN(C)C(=O)c1n[nH]c2c1CN(C(=O)c1ccccc1Br)CC2 |
| 892 s | O=C(Nc1nc(-c2ccc([N+](=O)[O-])cc2)cs1)c1ccc2ncsc2c1 |
| 658 s | O=C(NCCCN1CCOCC1)c1ccc(OCc2nnc(C(=O)Nc3ccccc3F)s2)cc1 |
| 544 s | CCN1CCN(CCNC(=O)C(C)n2c3ccccc3c3cnn(C)c(=O)c32)CC1 (stereo unspecified) |
| 770 s | O=c1c(=O)n(-c2ccccc2)ccn1Cc1cccc(C(F)(F)F)c1 |
| 848 s | O=C(NC1CC1)c1ccc(OCC2CCCN(C(=O)c3ccc(F)cc3F)C2)cc1 (stereo unspecified) |
| 641 s | O=C(c1ccc2ncccc2c1)N1CCN(c2cc(-c3cccs3)[nH]n2)CC1 |
| 948 s | Cc1ccc2c(c1)cc(S(=O)(=O)c1ccccc1)c(=O)n2CC(=O)NCc1ccccc1Cl |
| 677 s | COc1cc(NC(=O)N2CCCC2c2nncn2C2CCCC2)cc(OC)c1 (stereo unspecified) |
| 780 s | COc1ccc(-n2ccn3cc(-c4ccc(OC)c(OC)c4)nc3c2=O)cc1Cl |
| 766 s | Cc1ccc(C)c(NC(=O)N2CCC3(CC2)NC(=O)c2ccccc2O3)c1 |
| 572 s | Cc1cc(N2CCN(C)CC2)n2nc(CN3CCN(c4ccc(Cl)cc4)CC3)nc2n1 |
| 864 s | Cc1ccc(C)c(NC(=O)Cn2nc3c(N4CCC(C)CC4)nccn3c2=O)c1 |
| 747 s | N#Cc1ccc(S(=O)(=O)N2CCOCCNC(=O)[C@H]3CCCC[C@H]32)cc1 |
| 579 s | CN1CCN(CCNC(=O)c2ccc3nc(-c4ccc(Cl)cc4)cn3c2)CC1 |
| 574 s | CCc1cc(=O)n(CC(=O)NC2CCCC2)c(N)n1 |
| 812 s | O=C(CCCN1C(=O)c2cccc3cccc(c23)C1=O)NC1CCCCC1 |
| 560 s | O=C(NCCn1ncccc1=O)C1CCN(c2ccc(-c3ccc(F)cc3)nn2)CC1 |
| 824 s | COC(=O)C1=CN(c2ccccc2OC)c2ccccc2S1(=O)=O |

| RP-LC retention time | SMILES |
| --- | --- |
| 812 s | CCc1ccc(-c2cc3c(=O)n(CC(=O)NCCCN4CCCC4=O)nc(C)n3n2)cc1 |
| 850 s | CC(C)NC(=O)c1ccc(OCC2CCN(C(=O)c3cc(F)ccc3F)CC2)cc1 |
| 1000 s | CCOC(=O)c1noc2ncnc(N3CCc4cc(OC)c(OC)cc4C3C)c12 (stereo unspecified) |
| 993 s | COc1ccccc1-c1noc(C2CCCN2C(=O)c2cccc(OC)c2OC)n1 (stereo unspecified) |
| 733 s | O=C(Cn1nc(C(=O)N2CCOCC2)c2ccccc21)Nc1ccc(F)cc1 |
| 881 s | Cc1ccc2c(c1)NC1(CCN(S(=O)(=O)c3ccccc3F)CC1)c1cccn1-2 |
| 907 s | O=C(Cc1cccc(C(F)(F)F)c1)Nc1cnn(-c2ncc(N3CCCC3)cn2)c1 |
| 649 s | COc1cc(NC(=O)COc2nc(C)nc3ccccc23)cc(OC)c1OC |
| 1050 s | O=c1ccc(-c2ccc3c(c2)OCO3)nn1CCc1nc(-c2ccc(Cl)c(F)c2)no1 |
| 814 s | COc1cc(OC)cc(-c2cc3cnc(N)nc3nc2NC(=O)NC(C)(C)C)c1 |
| 996 s | COc1cc(-c2noc(Cc3nnc(-c4ccc(C)c(F)c4)o3)n2)cc(OC)c1OC |
| 886 s | CC1=C(c2ccc(F)cc2)S(=O)(=O)N=C1N1CCCN(C(=O)C2CCOC2)CC1 (stereo unspecified) |
| 936 s | COc1ccccc1-c1nc(-c2cn(Cc3cccc(F)c3)nn2)no1 |
| 1050 s | CC1Oc2ccc(-c3csc(NC(=O)CCc4ccccc4)n3)cc2NC1=O (stereo unspecified) |
| 618 s | Fc1cccc(-c2cc(CN3CCN(c4ncccn4)CC3)[nH]n2)c1 |
| 1000 s | CCn1c(=O)c2ccccc2n(Cc2nc(-c3cc(OC)cc(OC)c3)no2)c1=O |
| 646 s | Cc1nnc(NC(=O)c2cc(C3CC3)n(C3CCS(=O)(=O)C3)n2)s1 (stereo unspecified) |
| 631 s | CC(C)n1cc(CN2CCOCCNC(=O)CC2)c2ccccc21 |
| 960 s | Cc1c(C(=O)C(=O)Nc2cccc(F)c2)c2ccccc2n1C |
| 1210 s | Cc1ccc(-c2noc(Cc3nnc(-c4cccc(Cl)c4)o3)n2)cc1C |
| 724 s | CCN(CC)c1cc2c(cc1NC(=O)c1ccco1)n(C)c(=O)c(=O)n2C |
| 641 s | O=C(NCc1cccs1)C1CCCN(C(=O)c2cc(-c3ccccn3)n[nH]2)C1 (stereo unspecified) |

| RP-LC retention time | SMILES |
| --- | --- |
| 730 s | O=C(Nc1ccccc1)C1CC(=O)N(c2n[nH]c3cccc(F)c23)C1 (stereo unspecified) |
| 1170 s | CC1CCN(C(=O)C2CCN(c3nc4ccc(-c5ccccc5F)nc4s3)CC2)CC1 |
| 830 s | Cc1c(C(=O)NC2CC2)c(C)n(C)c1-c1ccccc1 |
| 825 s | Cc1nc(N2CCN(Cc3ccccc3)CC2)nc2c1C(=O)CC(c1ccc(Cl)cc1)C2 (stereo unspecified) |
| 734 s | Cc1ccn2c(Nc3ccc4c(c3)OCO4)c(-c3ccc(N(C)C)cc3)nc2c1 |
| 573 s | CN(C)C(=O)c1ccc2c(c1)N(CC(=O)N1CCN(c3ccccn3)CC1)C(=O)CS2 |
| 814 s | O=C(Nc1cccc(Cl)c1)c1cnn2c1CCCC2 |
| 1160 s | CCOc1ccc(-c2cc3c(=O)n(Cc4nc(-c5ccc(F)cc5)no4)ncn3n2)cc1 |
| 660 s | CCCc1cc(NCCN(C)C)n2ncc(-c3ccccc3)c2n1 |
| 653 s | Cc1cc(C)nc(NS(=O)(=O)c2ccc(NC(=O)c3c(F)cccc3F)cc2)n1 |
| 863 s | Cc1cc(=O)n(CC(=O)Nc2ccccc2Cl)c(N2CCOCC2)n1 |
| 821 s | Cc1nc(Cn2cccc2C(=O)Nc2cccc(C)c2C)no1 |
| 806 s | COc1cccc(CNC(=O)Cn2c(=O)cc(-c3nc(C)no3)c3ccccc32)c1 |
| 1270 s | Cc1ccc(/C=C/c2nc(-c3cccc(-c4ccnn4C)c3)no2)cc1 |
| 709 s | CCOc1ccc(NS(=O)(=O)c2ccc3c(c2)CCCC(=O)N3)cc1 |
| 660 s | COc1ccc(-c2cn3c(CC(=O)NC4CCCC4)csc3n2)cc1OC |
| 756 s | CC(C)n1c(N2CCCN(C(=O)c3ccco3)CC2)cc(=O)n(C(C)C)c1=O |
| 1070 s | O=c1n(Cc2nc(-c3ccc(OC(F)(F)F)cc3)no2)nc2ccc(-c3ccccc3)nn12 |
| 715 s | CC1(C)Cc2cccc(OCC(=O)NCC3CCN(S(C)(=O)=O)CC3)c2O1 |
| 1110 s | COc1cccc(-c2csc(-c3nnn(-c4cccc(OC)c4)c3N)n2)c1 |
| 894 s | O=C(NCCC1=CCCCC1)C(=O)NCc1ccsc1 |
| 660 s | CCN(CC)c1ncc2c(n1)CCC(C(=O)Nc1ccc(OC)c(OC)c1)C2 (stereo unspecified) |
